{"source": "patent US9139811B2", "about": "“Composition for suspension culturing of stem cells” (SEOUL NATIONAL UNIVERSITY HOSPITAL, priority 2011, dated 2015)", "key": {"[1]": {"test_system": "Human mesenchymal stem cells (BM-MSC)", "test": "Suspension culture of human mesenchymal stem cells, trypan blue staining and cell counting", "assay_type": "cell-based", "conditions": "for cell aggregation / apoptosis of non-aggregated single cells: 24 hours of culture, FIG. 2; for apoptosis of non-aggregated single cells: trypan blue staining", "procedure": "Human mesenchymal stem cells (Lonza, Switzerland) were cultured in 10% FBS-containing α-MEM medium such that no contact inhibition occurred. […] Then, the cells were treated with 0.25% trypsin/EDTA and allowed to stand in a CO2 incubator at 37° C. for 30 seconds. The cells that dropped into the tube were collected, and the cells remaining in the dish were completely collected with 10% FBS-containing α-MEM, and the collected cells were centrifuged at 1500 rpm for 5 minutes. The supernatant medium was removed by suction, and the precipitated cells were suspended in 5 ml of EB medium (80% DMEM/F12 80%+20% serum replacement) and then centrifuged at 1500 rpm for 5 minutes. Then, the cells were suspended in 10 ml of medium (containing or not containing 20 μM Y27632) in a 100 Φ Petri dish at a density of 2.0×10^6 cells. After 24 hours, the aggregated cells were stained with trypan blue, and then counted with an automated cell counter (Invitrogen)."}, "BCL-XL": {"test_system": "BCL-XL", "test": "Western blotting of BCL-XL expression in suspension-cultured cells", "assay_type": "cell-based, human", "conditions": "Y27632-treated vs control (naive) cells, FIG. 3", "procedure": "(§1) In order to measure a change in the expression of an anti-apoptosis factor in a cell sample, the expression level of BCL-XL was measured at the protein level. In addition, the cells were collected after suspension culture for 6 hours, and the degree of phosphorylation of ERK which is involved in the activity of the cells was evaluated. Specifically, the cells were lysed with a reducing agent [Lysis PreMix (4° C. stock)+NaF ([…], ×100)+orthovanadate (200 mM, ×200)+proteinase inhibitor cocktail (1 tablet/10 ml)], and then electrophoresed on SDS-polyacrylamide gel. Then, the cells were transferred to a PVDF transfer membrane (Millipore), after which a change in the expression of the protein was examined by a primary antigen-antibody reaction using BCL-xl (Santa Cruz Biotechnology) and a secondary antigen-antibody reaction using anti-rabbit IgG and anti-mouse IgG."}, "[2]": {"test_system": "ERK (extracellular signal-regulated kinase)", "test": "Western blotting of ERK phosphorylation in suspension-cultured cells", "assay_type": "cell-based, human", "conditions": "suspension culture for 6 hours, Y27632-treated vs control (naive) cells, FIG. 4", "procedure": "as §1"}, "[3]": {"test_system": "HGF (hepatocyte growth factor)", "test": "HGF ELISA of culture supernatant", "assay_type": "cell-based, human", "conditions": "vs untreated control cells and EDTA-treated control cells, FIG. 5", "source_text": "(§2) In vivo conditions in which treatment of cells is required are mostly ischemic anoxic anaerobic conditions in which the cells are injured or broken, and one of major factors in the conditions is HGF (hepatocyte growth factor). Thus, in order to examine the expression level of the hepatocyte growth factor HGF, the supernatant was collected from the cell sample and analyzed by ELISA (enzyme-linked immunosorbent assay) using a HGF-specific antibody according to the manufacturer's protocol."}, "[4]": {"test_system": "Human mesenchymal stem cells", "test": "Suspension culture of human mesenchymal stem cells under anoxic anaerobic condition and cell counting", "assay_type": "cell-based", "conditions": "for number of dead cells / number of viable cells / total number of cells / viability: anaerobic condition, 20 μM Y27632", "procedure": "Human mesenchymal stem cells were cultured in 10% FBS-containing α-MEM medium such that no contact inhibition occurred. […] Then, the cells were treated with 0.25% trypsin/EDTA and allowed to stand in a CO2 incubator at 37° C. for 30 seconds. The cells that dropped into the tube were collected, and the cells remaining in the dish were completely collected with 10% FBS-containing α-MEM, and the collected cells were centrifuged at 2000 rpm for 5 minutes. The supernatant medium was removed by suction, and the precipitated cells were suspended in 5 ml of EB medium (80% DMEM/F12 80%+20% serum replacement) and then centrifuged at 1500 rpm for 5 minutes. Then, the cells were suspended in 10 ml of medium (containing or not containing 20 μM Y27632) in a 100 0 Petri dish at a density of 2.0×10^6 cells. Then, the cells were placed in an anoxic pack (BD Science) to induce an anoxic anaerobic condition. […]"}, "[5]": {"test_system": "HGF (hepatocyte growth factor)", "test": "Suspension culture of single cells using E-cadherin blocker: HGF expression", "assay_type": "cell-based, human", "conditions": "aggregation inhibited with E-cadherin blocking antibody, Y-27632 for 24 hours, FIG. 9", "source_text": "as §2\nIn order to use E-cadherin to induce single-cell culture during suspension culture, the cells were treated with an E-cadherin blocker to inhibit the induction of cell aggregation during suspension culture. Specifically, human mesenchymal stem cells were cultured in 10% FBS-containing α-MEM medium such that no contact inhibition occurred. When a confluence of about 80% was reached, the medium was removed by suction for cell counting, and the cells were washed with PBS (calcium-free and magnesium-free). Then, the cells were treated with 0.25% trypsin/EDTA and allowed to stand in a CO2 incubator at 37° C. for 30 seconds. The cells that dropped into the tube were collected, and the cells remaining in the dish were completely collected with 10% FBS-containing α-MEM, and the collected cells were centrifuged at 1500 rpm for 5 minutes. […]"}, "[6]": {"conditions": "20 μM Y27632, suspension culture 24 hours, trypan blue"}}, "data": [{"smiles": "C[C@@H](N)[C@H]1CC[C@H](C(=O)Nc2ccncc2)CC1.Cl.Cl", "note": "(relative stereo) [Y27632, trans-4-[(1R)-1-Aminoethyl]-N-4-pyridinyl-cyclohexanecarboxamide, 2HCl]", "values": [{"measurement": "total number of cells", "setting": "[1]; 20 μM Y27632, suspension culture 24 hours", "result": "1.8×10^6"}, {"measurement": "number of dead cells", "setting": "[1]; [6]", "result": "0.54×10^6"}, {"measurement": "number of viable cells", "setting": "[1]; [6]", "result": "1.26×10^6"}, {"measurement": "viability", "setting": "[1]; [6]", "result": 70, "unit": "%"}, {"measurement": "cell aggregation", "setting": "[1]", "result": "further increased"}, {"measurement": "apoptosis of non-aggregated single cells", "setting": "[1]", "result": "prevented"}, {"measurement": "expression of the anti-apoptosis factor BCL-XL", "setting": "BCL-XL", "result": "significantly increased"}, {"measurement": "phosphorylation of ERK", "setting": "[2]", "result": "significantly increased"}, {"measurement": "expression level of HGF", "setting": "[3]", "result": "significantly higher"}, {"measurement": "number of dead cells", "setting": "[4]; 6 hours of culture", "result": "2.4×10^5"}, {"measurement": "number of viable cells", "setting": "[4]; 6 hours of culture", "result": "1.2×10^6"}, {"measurement": "total number of cells", "setting": "[4]; 6 hours of culture", "result": "1.6×10^6"}, {"measurement": "viability", "setting": "[4]; 6 hours of culture", "result": 84, "unit": "%"}, {"measurement": "number of dead cells", "setting": "[4]; 24 hours of culture", "result": "1.6×10^5"}, {"measurement": "number of viable cells", "setting": "[4]; 24 hours of culture", "result": "1.24×10^6"}, {"measurement": "total number of cells", "setting": "[4]; 24 hours of culture", "result": "1.4×10^6"}, {"measurement": "viability", "setting": "[4]; 24 hours of culture", "result": 90, "unit": "%"}, {"measurement": "apoptosis of single cells", "setting": "[4]; anoxic anaerobic condition, FIG. 7", "result": "did not undergo apoptosis"}, {"measurement": "HGF efficiency (expression level of HGF)", "setting": "[5]", "result": "increased"}]}, {"smiles": "O=C(O)CN(CCN(CC(=O)O)CC(=O)O)CC(=O)O", "note": "[EDTA]", "values": [{"measurement": "cell aggregation", "setting": "[1]", "result": "no cell aggregation occurred"}, {"measurement": "apoptosis of non-aggregated single cells", "setting": "[1]", "result": "apoptosis occurred in all the cells"}]}]}
